Source: US20260103760A1, “ANALYTIC METHOD FOR DIAGNOSING OVARIAN CANCER RESISTANT TO PACLITAXEL” (CHA UNIVERSITY INDUSTRY-ACADEMIC COOPERATION FOUNDATION, priority 2022, published 2026)

System: Taxol-resistant ovarian cancer cell line SKOV3/TAX compared to ovarian cancer cell line SKOV3
Assay: Cell viability of SKOV3 and SKOV3/TAX cultured in medium containing Taxol (cell counting kit-8)
Format: cell-based
Conditions: medium containing 30 μM Taxol, FIG. 1
Method: Ovarian cancer cell line SKOV3 (HTB-77™, Sigma-Aldrich, St. Louis, MO, USA) was cultured in a DMEM medium (31800-022, Gibco, Grand Island, NY, USA) containing 5 μM Taxol, 10% FBS and 1% Antibiotic-Antimycotic (15240062, Gibco, Grand Island, NY, USA) at 37° C. in a 5% CO2 incubator for 1 month. The cells were harvested and cultured continuously in a 5% CO2 incubator at 37° C., in a medium containing 10 µM Taxol for 2 months, in a medium containing 20 µM Taxol for 2 months, and in a medium containing 30 μM Taxol for 2 months (total for 7 months), and then the viable cell line was isolated. The isolated cell line was named SKOV3/TAX and the following experiments were performed using as an ovarian cancer cell line resistant to Taxol. In order to compare Taxol resistance, the SKOV3 and SKOV3/TAX cells were cultured at 5,000 cells per well in a 96-well plate in a medium containing Taxol at a concentration of 30 μM per well. Then, cell viabilities were measured at 0, 24, and 48 hours with a cell counting kit-8 (CK04-11, Dojindo, Rockville, MD, USA).

CC(=O)O[C@H]1C(=O)[C@@]2(C)[C@H]([C@H](OC(=O)c3ccccc3)[C@]3(O)C[C@H](OC(=O)[C@H](O)[C@@H](NC(=O)c4ccccc4)c4ccccc4)C(C)=C1C3(C)C)[C@]1(OC(C)=O)CO[C@@H]1C[C@@H]2O [Taxol, paclitaxel]
cell viability of SKOV3/TAX compared to SKOV3 (increase) (24 hours, 5,000 cells per well): approximately 1.67 fold | cell viability of SKOV3/TAX compared to SKOV3 (increase) (48 hours, 5,000 cells per well): approximately 2.40 fold
